In patent EP3400938B1, “NOVEL N-(1,2,3-TRIAZOLMETHYL)ISATIN AND N-(1,2,3-TRIAZOLMETHYL)-3-HYDROXY-3-ARYLOXINDOLES WITH CYTOTOXIC AND ANTI-TUMOR ACTIVITY” (Universidade de Évora, priority 2017, dated 2018):
Read-outs that look alike come from different tables or passages of the source.

Legend:
SU-DHL-2 = assay: 72 h MTT proliferation assay on lymphoma cell lines (SU-DHL-2); assay type: cell-based; details: SU-DHL-2 (ABC-DLBCL), 72h exposure time, read-out: ABC-DLBC cell lines IC50, SU-DHL-2
Description: (§1) A set of ten compounds was tested against four lymphoma cell lines belonging to Germinal Center B-cell-like Diffuse Large B-Cell lymphoma, GCB-DLBCL and Activated B-Cell-like Diffuse Large B-Cell lymphoma, ABC-DLBCL (Table 3). Compounds were tested in triplicates as single agents, for 72 hours by using a large range of concentrations. […] In particular, ISATIN-BENZYL is the most promising one reaching IC50s of 1 and 5 µM in the OCI-LY-10 and SU-DHL-2 cell lines (Table 3). Table 3. IC50 values obtained from MTT assay with a 72h exposure time on lymphoma cell lines.
(§2) 72 h MTT assay on lymphoma cell lines.
(§3) Compounds were dissolved in dimethyl sulphoxide (DMSO) to obtain a stock concentration of 20 mM.
(§4) Cell lines. The panel of lymphoma cell lines comprised models derived from diffuse large B-cell lymphoma (n. 4) cell lines derived from DLBCL of the germinal center B-cell type (GCB-DLBCL), such as VAL and DOHH-2, and derived of the activated B-cell type (ABC-DLBCL) such as OCI-LY-10 and SU-DHL-2.
(§5) Cells were seeded in 96-well plates (non-tissue culture treated) at a density of 10,000 cells for all cell lines. Each compound was dissolved in dimethyl sulphoxide (DMSO). For treatment of cells, compounds were serially diluted in the appropriate tissue culture medium, at a range of 20 µM - 19 nM following a 1:2 dilution factor and added to cells (in three replicates). Cells were incubated for 72 hours at 37 °C, 5% CO2. DMSO alone was added to negative control (untreated) cells. Wells containing medium only were included on each plate and served as blanks for absorbance readings. MTT (Sigma-Aldrich Chemie GmbH, Buchs, Switzerland) was prepared as a 5 mg/ml stock in PBS and filter-sterilized. MTT solution (22µL) was added to each well and tissue culture plates were incubated at 37°C for 4 hours. Cells were then lysed with 25% SDS lysis buffer and absorbance was read at 570 nm using an AD340 plate reader (Beckman Coulter International SA, Switzerland). Absorbance values were expressed in percentage of proliferating cells in comparison with control cells (control corresponds to 100%).

[1] = test system: SW480 colon adenocarcinoma cells; assay: 24 h MTT cytotoxicity assay, SW480 cell line; assay type: cell-based; details: 24h exposure time
Description: One of the main strategies for the treatment of cancer is chemotherapy (De Santis et al. 2014). There are two main factors that made the development of new chemotherapeutic agents crucial: the side effects of the current anticancer drugs used in the clinic and the appearance of tumour cell resistance. A first step facing at tackling this challenging goal is the evaluation of the cytotoxic activity of the new synthesized drugs. In our case, cytotoxicity was evaluated by means of the antiproliferative assay MTT, which is a high-throughput method widely used for the screening of new drugs that is based on the ability of the mitochondrial dehydrogenases to reduce a water soluble yellow dye, namely 3-(4,5-dimethylthiazol-2-yl)-2,5-diphenyl tetrazolium bromide, to form a water insoluble blue formazan (McCauley et al., 2013). […] The best inhibition was obtained with (S)-2 (Table 2, entry 2). Overall the (S) series gave better inhibition results. Table 2 IC50 values obtained from MTT assay with a 24h exposure time
Biological Screening Studies 24 h MTT Cytototoxicity Assay - SW480 cell line
Approximately 5 × 10^3 SW480 colon adenocarcinoma cells were cultured in 200 µl culture medium per well (DMEM medium), supplemented with 10% newborn calf serum and 1% amphotericin-penicillin-streptomycin solution in 96-well plates and incubated at 37 °C under a 5% CO2 atmosphere. The cells were grown for 24h and then exposed to different concentrations of the tested drugs (dissolved in culture medium) for 24h. Hydrogen peroxide was used as a positive control. The cells were washed with the culture medium, incubated with MTT (500 µg/ml) for a further period of 3 hours. At the end of the incubation, the medium was removed, then carefully washed with PBS and 200 µl DMSO were added to each well. Absorbance was read at 570 nm in a microplate reader. Four replicates per dose were included. The IC50 values, that is, the concentrations which produced 50% inhibition of cell viability were calculated from MTT data using the GraphPadPrism Software Inc. (version 6.01) (USA).

DOHH-2 = assay: 72 h MTT proliferation assay on lymphoma cell lines (DOHH-2); assay type: cell-based; details: DOHH-2 (GCB-DLBCL), 72h exposure time, read-out: GCB-DLBC cell lines IC50, DOHH-2
Description: as §1, §2, §3, §4, §5

VAL = assay: 72 h MTT proliferation assay on lymphoma cell lines (VAL); assay type: cell-based; details: VAL (GCB-DLBCL), 72h exposure time, read-out: GCB-DLBC cell lines IC50, VAL
Description: as §1, §2, §3, §4, §5

OCI-LY-10 = assay: 72 h MTT proliferation assay on lymphoma cell lines (OCI-LY-10); assay type: cell-based; details: 72h exposure time, read-out: ABC-DLBC cell lines IC50, OCI-LY-10
Description: as §1, §2, §3, §4, §5

[2] = test system: SW480 colon adenocarcinoma cells; details: bench-mark value from Xu et al. 2003, SW480; cited from earlier work
[3] = Homo sapiens, OCI-Ly10, OCI-LY-10 (ABC-DLBCL)

| Structure (SMILES) | IC50 (DOHH-2; Homo sapiens) [µM] | IC50 (VAL) [µM] | IC50 (OCI-LY-10; [3]) [µM] | IC50 ([1]; Homo sapiens, SW480, 24 h) [µM] | IC50 [1] [µM] | also measured |
| --- | --- | --- | --- | --- | --- | --- |
| O=C1C(=O)N(Cc2cn(Cc3ccccc3)nn2)c2ccccc21 [ISATIN-MENTHOL, 1-((1-Benzyl-1H-1,2,3-triazol-4-yl)methyl)indoline-2,3-dione] | > 20 | > 20 | 7 |  |  | IC50 (SU-DHL-2; Homo sapiens): 15 µM; IC50 ([1]; Homo sapiens): 13.7 µM |
| O=C1N(Cc2cn(Cc3ccccc3)nn2)c2ccc(Br)cc2C1(O)c1ccccc1 [(R) -7, 1-((1-Benzyl-1H-1,2,3-triazol-4-yl)methyl)-5-bromo-3-hydroxy-3-phenylindolin-2-one] |  |  |  | 42.5 |  |  |
| O=C1N(Cc2cn(Cc3ccccc3)nn2)c2ccccc2C1(O)c1ccc(F)cc1 [(R) -3, 1-((1-Benzyl-1H-1,2,3-triazol-4-yl)methyl)-3-(4-fluorophenyl)-3-hydroxyindolin-2-one] | > 20 | > 20 | > 20 | 49.1 |  | IC50 (SU-DHL-2; Homo sapiens, SU-DHL-2, 72 h): > 20 µM |
| Cc1ccc(C2(O)C(=O)N(Cc3cn(Cc4ccccc4)nn3)c3ccccc32)cc1 [(S) -8, 1-((1-Benzyl-1H-1,2,3-triazol-4-yl)methyl)-3-hydroxy-3-p-tolylindolin-2-one] |  |  |  | > 200 |  |  |
| O=C1N(Cc2cn(Cc3ccccc3)nn2)c2ccccc2C1(O)c1ccccc1 [(R) -1, 1-((1-Benzyl-1H-1,2,3-triazol-4-yl)methyl)-3-hydroxy-3-phenylindolin-2-one] | > 20 | > 20 | > 20 | 82.6 |  | IC50 (SU-DHL-2; Homo sapiens, SU-DHL-2, 72 h): > 20 µM |
| COc1ccc(C2(O)C(=O)N(Cc3cn(Cc4ccccc4)nn3)c3ccccc32)cc1 [(R) -4, 1-((1-Benzyl-1H-1,2,3-triazol-4-yl)methyl)-3-hydroxy-3-(4-methoxyphenyl)indolin-2-one] |  |  |  | 76.4 |  |  |
| O=C1N(Cc2cn(Cc3ccccc3)nn2)c2ccccc2C1(O)c1ccccc1 [(S) -1, 1-((1-Benzyl-1H-1,2,3-triazol-4-yl)methyl)-3-hydroxy-3-phenylindolin-2-one] |  |  |  |  | 63 |  |
| O=C1N(Cc2cn(Cc3ccccc3)nn2)c2ccccc2C1(O)c1ccc2ccccc2c1 [(R) -2, 1-((1-Benzyl-1H-1,2,3-triazol-4-yl)methyl)-3-hydroxy-3-(naphthalen-2-yl)indolin-2-one] | > 20 | > 20 | > 20 | 18.6 |  | IC50 (SU-DHL-2; Homo sapiens, SU-DHL-2, 72 h): > 20 µM |
| CC(C)[C@H]1CC[C@H](C)C[C@H]1n1cc(CN2C(=O)C(=O)c3ccccc32)nn1 [ISATIN-BENZYL, 1-((1-((1R,2R,5S)-2-Isopropyl-5-methylcyclohexyl)-1H-1,2,3-triazol-4-yl)methyl)indoline-2,3-dione] | > 20 | > 20 | 1 |  |  | IC50 (SU-DHL-2; Homo sapiens): 5 µM; IC50 ([1]; Homo sapiens): 84.4 µM |
| O=C1N(Cc2cn(Cc3ccccc3)nn2)c2ccccc2C1(O)c1ccc(F)cc1 [(S) -3, 1-((1-Benzyl-1H-1,2,3-triazol-4-yl)methyl)-3-(4-fluorophenyl)-3-hydroxyindolin-2-one] |  | > 20 |  |  | 25.9 | IC50 (SU-DHL-2): > 20 µM; IC50 (DOHH-2): > 20 µM; IC50 (OCI-LY-10; OCI-LY-10 (ABC-DLBCL)): > 20 µM |
| O=C1N(Cc2cn(Cc3ccccc3)nn2)c2ccccc2C1(O)c1ccsc1 [(S) -5, 1-((1-Benzyl-1H-1,2,3-triazol-4-yl)methyl)-3-hydroxy-3-(thiophen-3-yl)indolin-2-one] |  |  |  |  | 33 |  |
| O=C1N(Cc2cn(Cc3ccccc3)nn2)c2ccccc2C1(O)c1ccc2ccccc2c1 [(S) -2, 1-((1-Benzyl-1H-1,2,3-triazol-4-yl)methyl)-3-hydroxy-3-(naphthalen-2-yl)indolin-2-one] |  | > 20 |  |  | 12.8 | IC50 (SU-DHL-2): 19 µM; IC50 (DOHH-2): > 20 µM; IC50 (OCI-LY-10; OCI-LY-10 (ABC-DLBCL)): > 20 µM |
| COc1cccc2c1C(=O)c1c(O)c3c(c(O)c1C2=O)C[C@@](O)(C(=O)CO)C[C@@H]3O[C@H]1C[C@H](N)[C@H](O)[C@H](C)O1 [Dox, doxorubicin] |  |  |  |  |  | IC50 [2]: 65.3 µM |
| O=C1N(Cc2cn(Cc3ccccc3)nn2)c2ccccc2C1(O)c1cccc(O)c1 [(R) -6, 1-((1-Benzyl-1H-1,2,3-triazol-4-yl)methyl)-3-hydroxy-3-(3-hydroxyphenyl)indolin-2-one] |  |  |  |  | 210 |  |
| O=C1N(Cc2cn(Cc3ccccc3)nn2)c2ccc(Br)cc2C1(O)c1ccccc1 [(S) -7, 1-((1-Benzyl-1H-1,2,3-triazol-4-yl)methyl)-5-bromo-3-hydroxy-3-phenylindolin-2-one] | 19 | > 20 | > 20 |  | 34.1 | IC50 (SU-DHL-2; Homo sapiens, SU-DHL-2, 72 h): 19 µM |
| O=C1N(Cc2cn(Cc3ccccc3)nn2)c2ccccc2C1(O)c1cccc(O)c1 [(S) -6, 1-((1-Benzyl-1H-1,2,3-triazol-4-yl)methyl)-3-hydroxy-3-(3-hydroxyphenyl)indolin-2-one] |  |  |  |  | 52.8 |  |
| COc1ccc(C2(O)C(=O)N(Cc3cn(Cc4ccccc4)nn3)c3ccccc32)cc1 [(S) -4, 1-((1-Benzyl-1H-1,2,3-triazol-4-yl)methyl)-3-hydroxy-3-(4-methoxyphenyl)indolin-2-one] |  |  |  |  | 48.9 |  |
| O=C1N(Cc2cn(Cc3ccccc3)nn2)c2ccccc2C1(O)c1ccsc1 [(R) -5, 1-((1-Benzyl-1H-1,2,3-triazol-4-yl)methyl)-3-hydroxy-3-(thiophen-3-yl)indolin-2-one] | > 20 | > 20 | > 20 |  | 86.4 | IC50 (SU-DHL-2; Homo sapiens, SU-DHL-2, 72 h): > 20 µM |
| CCCCn1cc(CN2C(=O)C(O)(c3ccccc3)c3ccccc32)nn1 [(S) -9, 1-((1-Butyl-1H-1,2,3-triazol-4-yl)methyl)-3-hydroxy-3-phenylindolin-2-one] |  |  |  | > 200 |  |  |
